Reference: PMC10609273, “Radiosynthesis and Early Evaluation of a Positron Emission Tomography Imaging Probe [^18F]AGAL Targeting Alpha-Galactosidase A Enzyme for Fabry Disease” (Molecules, 2023)
Like-named read-outs stand apart in the source and are kept apart here.

How the values were obtained:
Format in all cases: in vitro ADME
P-gp and BCRP = assay: Bidirectional permeability in Caco-2 cells; settings: human, Caco-2, with Elacridar (GF918) 10 µM, 5 µM, + 10 µM Elacridar (GF918) (dual inhibitor of P-gp and BCRP)
Method: (§1) The Caco-2 cell culture and bidirectional permeability assays used in the study were adapted from previous studies at Takeda. Briefly, Caco-2 cells were obtained from American Type Culture Collection (ATCC) (Manassas, VA, USA) and were cultured in 175 cm^2 tissue culture T-flasks (Corning Life Sciences, Corning, NY, USA). For bidirectional permeability assays, cells were plated onto Costar 24-well culture plates (0.33 cm^2/well, […] (Corning Life Sciences, Corning, NY, USA) by adding 1 × 10^5 cells suspended in 0.2 mL of culture medium (Dulbecco’s modified Eagle’s medium [DMEM] with 0.1 mM non-essential amino acids, 2 mM L-glutamine, 4.5 g/L glucose, and 10% fetal bovine serum [FBS]) to the upper chamber of each well of the 24-well transwell plate. Cell-free culture medium (40 mL) was added to the lower chamber reservoir (Corning Life Sciences, Corning, NY, USA). The transwell plates were then incubated at 37 °C in an atmosphere of 5% CO2 for 25 days to ensure complete enterocyte-like differentiation of the cells, and the culture medium was changed every three to four days during the incubation period. Cell monolayers with transepithelial electrical resistance (TEER) values > 250 ohms × cm^2 were used for the bidirectional permeability assays.
(§2) All chemicals and reagents including control compounds were purchased from commercial sources such as Sigma-Aldrich or synthesized in house (pevonedistat and LY335979). Bidirectional transport studies were performed at 37 °C. Before each experiment, the confluent cell monolayers on transwell inserts were washed and equilibrated for 30 min with transport media (Hank’s Balanced Salt Solution [HBSS] containing 25 mM 4-(2-hydroxyethyl)-1-piperazineethanesulfonic acid [HEPES] and 10 mM glucose, pH 7.4 or 6.5). The bidirectional permeability of 5 µM of the cyclohexane derivative was assessed alone or in the presence of 5 µM LY335979, 5 µM K0143, or 10 µM Elacridar to inhibit P-gp, BCRP, and both efflux transporters, respectively. Additionally, the bi-directional permeability of 5 µM solutions of nadolol (low permeable control marker), minoxidil (high permeable marker), propranolol (high permeable marker), and pevonedistat (efflux transporter control) was also assessed. The experiment was initiated by adding a solution containing the test compounds and LY335979 to either the apical (for apical-to-basolateral [A-to-B] transport) or basolateral (for basolateral-to-apical [B-to-A] transport) compartment. Lucifer yellow (50 µM) was added to each donor chamber in the experiment to serve as a paracellular transport control and to monitor cell monolayer integrity. The apical volume was 0.2 mL and the basolateral volume was 1.0 mL. Bovine serum albumin (BSA, Sigma Aldrich) (5%) was added to the transport media on the receiver side to prevent non-specific binding of the test compound to the polystyrene well. After the addition of test compound into the donor side, […] of the receiving solution were withdrawn from the receiver side at 30 and 60 min. A […] of fresh transport media was immediately added to the receiver side at 30 and 60 min. The samples were placed into 96-well black plates (PerkinElmer Life Sciences, Boston, MA, USA) for fluorescence measurement (excitation at 450 nm and emission at 535 nm). After this measurement, the amounts of cyclohexane derivative and control compounds in each sample were quantified with liquid chromatography–mass spectrometry (LC–MS). The time course of drug transported across cell monolayers was analyzed to determine the time and rate of steady-state flux. The transport rate (total amount of drug present in the receiver chamber per unit time), Papp, and efflux ratio were calculated as described in Equations (4) and (5). […]

Caco-2 cells = assay: Bidirectional permeability in Caco-2 cells
Method: as §1, §2

P-gp = assay: Bidirectional permeability in Caco-2 cells; settings: human, Caco-2, with LY335979 5 µM
Method: as §1, §2

BCRP = assay: Bidirectional permeability in Caco-2 cells; settings: human
Method: as §1, §2

[1] = Bidirectional permeability in Caco-2 cells; settings: human, Caco-2, 5 µM, alone
Method: as §1, §2

[2] = In vitro liver microsomal metabolism study, mouse; settings: mouse liver microsomes
Method: Metabolic stability was assessed by incubating compounds in the presence of human, rat, and mouse liver microsomal fractions (Xenotech, Kansas City, KS, USA). All chemicals and reagents, including control compounds, were purchased from commercial sources such as Sigma-Aldrich (St. Louis, MO, USA) or Toronto Research Chemicals (North York, ON, Canada). Liver microsomal incubations were conducted with 100 mM phosphate buffer, 0.5 mg/mL of liver microsomal protein, 2 mM NADPH, 2.5 mM UDPGA, 3 mM MgCl2, alamethicin, and 1 μM test article for a total incubation volume of 80 µL. All reagents except the liver microsomes were mixed together and aliquoted (60 μL) into 96-well plates. The reaction was initiated by adding the microsomes (20 μL). At 0, 3, 7, 12, 20, and 30 min time points, the reactions were terminated with the addition of acetonitrile-containing carbutamide (as an internal standard). The terminated samples were then centrifuged at 2 °C to pellet the protein and the supernatant was injected onto an LC–MS. The test article was monitored for loss over time and the t1/2 was determined. The calculated t1/2 was then used as described below to determine the Eh (hepatic extraction ratio) for both human and rat.
The intrinsic clearance (CLint), hepatic clearance (CLh), and hepatic extraction ratio (Eh) were calculated using the equations below. CLint = (0.693/t1/2 in vitro) × (mL incubation volume/mg microsomal protein) × (X mg of microsomal protein/gram of liver) × (Y g of liver/kg of body weight)(1) CLh = Q × CLint/Q + CLint(2) Eh = CLh/Q(3) where: • CLint = intrinsic clearance (calculated from microsomal incubations) • X = 40 for human, 41.5 for rat and 45 for mouse • Y = 21.4 for human, 40 for rat and 50 for mouse • t1/2 = half-life • CLh = hepatic clearance • Q = liver blood flow rate = 1.24 L/h/kg for human, 4.8 L/h/kg for rat, and 5.4 L/h/kg for mouse • Eh = hepatic extraction ratio • CLh = hepatic clearance

[3] = read-out: Ratio (B/A), efflux ratio
[4] = 5 µM, + 5 µM LY335979 (P-gp inhibitor)
[5] = Caco-2, with KO143 5 µM, 5 µM, + 5 µM KO143 (BCRP inhibitor)

Papp A→B at 60 min, 5 µM (P-gp and BCRP): 0.25 ×10⁻⁶ cm/s
Papp B→A at 60 min, 5 µM (P-gp and BCRP): 0.74 ×10⁻⁶ cm/s
efflux ratio at 60 min, 5 µM (P-gp and BCRP; [3]): 2.9
reduction of the efflux ratio (Caco-2 cells; by LY335979): 67%
reduction of the efflux ratio (Caco-2 cells; by elacridar): 76%
efflux ratio at 60 min, 5 µM (P-gp; by P-gp inhibitor LY335979, read-out: reduction of the efflux ratio): 3
Papp A→B at 60 min, 5 µM (P-gp; [4]): 0.25 ×10⁻⁶ cm/s
Papp B→A at 60 min, 5 µM (P-gp; [4]): 0.95 ×10⁻⁶ cm/s
efflux ratio at 60 min, 5 µM (P-gp; 5 µM, + 5 µM LY335979 (P-gp inhibitor), read-out: Ratio (B/A), efflux ratio): 3.9
efflux ratio at 60 min, 5 µM (BCRP; Caco-2, with K0143 5 µM, by BCRP inhibitor K0143, read-out: reduction of the efflux ratio): 1.4
Papp A→B at 60 min, 5 µM (BCRP; [5]): 0.15 ×10⁻⁶ cm/s
Papp B→A at 60 min, 5 µM (BCRP; [5]): 1.31 ×10⁻⁶ cm/s
efflux ratio at 60 min, 5 µM (BCRP; Caco-2, with KO143 5 µM, 5 µM, + 5 µM KO143 (BCRP inhibitor), read-out: Ratio (B/A), efflux ratio): 8.7
Papp A→B at 60 min, 5 µM [1]: 0.11 ×10⁻⁶ cm/s
Papp B→A at 60 min, 5 µM [1]: 1.36 ×10⁻⁶ cm/s
efflux ratio at 60 min, 5 µM [1, 3]: 12
CLh [2]: 68.8 mL/min/kg
Eh (hepatic extraction ratio) [2]: 0.766
microsomal stability, clearance in words [2]: highly cleared
CLint scaled at 1 µM ([2]; 1 μM, NADPH + UDPGA): 293 mL/min/kg
Structure (SMILES): O=C(CCCCCCCn1cc(CCCF)nn1)N1[C@@H]2[C@H](O)[C@@H](O)[C@@H](O)[C@@H](CO)[C@@H]21 [AGAL]
